From patent US9469616B2, “Cyclic compounds and methods of making and using the same” (Cellceutix Corporation, priority 2011, dated 2016)
Values after ≈ are worked out from the molar mass of the structure shown.

Tested on: NIH/3T3 cells
Assay: Cytotoxicity colorimetric assay
Assay type: cell-based
Conditions: Mus musculus, NIH3T3, 1 h, one hour incubation in serum-free media
Description: Cytotoxicity of the compounds are evaluated in a colorimetric assay using a transformed human liver cell line (HepG2, HB-8065) and an embryonic mouse cell line (NIH/3T3 cells, CRL-1658). This assay measures the bioreduction of a novel tetrazolium compound to a soluble formazan product by viable cells. HepG2 cells are seeded in 96 well plates at 2×10^4 cells/well in MEM medium with 10% fetal bovine serum (FBS) 24 hours prior to use. NIH/3T3 cells are seeded in 96 well plates at 2×10^4 cells/well in DMEM medium with 10% bovine calf serum (BCS) 24 hours prior to use. Cell monolayers are rinsed in serum-free media and incubated for one hour with a Compound in serum-free media. After incubation, the media is replaced with serum supplemented media and live cells are measured using the Cell Titer 96 Aqueous […] Assay kit (Promega, Madison, Wis.). EC50 values are determined using a four parameter logistic equation: Y=Bottom+(Top−Bottom)/(1+10^((Log EC50−X)*HillSlope)). […] Data is expressed as EC50 in μg/ml. Cytotoxicity is evaluated in a colorimetric assay using a transformed human liver cell line (HepG2, HB-8065) and an embryonic mouse cell line (NIH/3T3 cells, CRL-1658). This assay measures the bioreduction of a novel tetrazolium compound to a soluble formazan product by viable cells. HepG2 cells are seeded in 96 well plates at 3×10^4 cells/well in MEM medium with 10% fetal bovine serum (FBS) 24 hours prior to use. NIH/3T3 cells are seeded in 96 well plates at 2×10^4 cells/well in DMEM medium with 10% bovine calf serum (BCS) 24 hours prior to use. Cell monolayers are rinsed in serum-free media and incubated for one hour with test agent in serum-free media. After incubation, the media is replaced with serum supplemented media and live cells are measured using the Cell Titer 96 Aqueous […] Assay kit (Promega, Madison, Wis.). EC50 values are determined using a four parameter logistic equation: Y=Bottom+(Top−Bottom)/(1+10^((Log EC50−X)*HillSlope)).

## NCCCOc1cc(-c2ccc3ccc(-c4cc(OCCCN)c(OCCCN)c(OCCCN)c4)cc3c2)cc(OCCCN)c1OCCCN [Compound 116]
  EC50: 165 µg/mL (≈ 230 µM)
